Test results: PubChem BioAssay AID1963439 (Molecular Pharmacology Branch, DTP, NCI, 2024)
Where “and” joins values, the source holds several entries; their conditions need not be identical. Equal entries are not always repeated.

System: NCI-H196 complex spheroids with HUVEC/MSC, growth % T/C
Test: Anticancer human tumor NCI-H196 cell line growth inhibition [Asc];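 further: spheroids exposed to compound for 7 days before measurement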;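 on viability, T/C: 100% = DMSO vehicle control wells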
Details: for viability, T/C: stronger effect = lower value
How it was run: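 Spheroid model: tumor line + HUVEC + hMSC. Single agents and combinations; top conc. at/near clinical Cmax (10 microM if undetermined), half-log dilutions. DMSO stocks at 800-fold test concentration.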

[1] = curve of first compound, second compound 0.03 µM
[2] = curve of first compound, second compound 0.0949 µM
[3] = curve of first compound, second compound 0.3 µM
[4] = curve of first compound, second compound 0.949 µM
[5] = curve of first compound, second compound 3 µM
[6] = second compound 0.03 µM, first compound 0.000316 µM
[7] = second compound 0.03 µM, first compound 0.001 µM
[8] = second compound 0.03 µM, first compound 0.00316 µM
[9] = second compound 0.03 µM, first compound 0.01 µM
[10] = second compound 0.03 µM, first compound 0.0316 µM
[11] = second compound 0.03 µM, first compound 0.1 µM
[12] = second compound 0.0949 µM, first compound 0.000316 µM
[13] = second compound 0.0949 µM, first compound 0.001 µM
[14] = second compound 0.0949 µM, first compound 0.00316 µM
[15] = second compound 0.0949 µM, first compound 0.01 µM
[16] = second compound 0.0949 µM, first compound 0.0316 µM
[17] = second compound 0.0949 µM, first compound 0.1 µM
[18] = second compound 0.3 µM, first compound 0.000316 µM
[19] = second compound 0.3 µM, first compound 0.001 µM
[20] = second compound 0.3 µM, first compound 0.00316 µM
[21] = second compound 0.3 µM, first compound 0.01 µM
[22] = second compound 0.3 µM, first compound 0.0316 µM
[23] = second compound 0.3 µM, first compound 0.1 µM
[24] = second compound 0.949 µM, first compound 0.000316 µM
[25] = second compound 0.949 µM, first compound 0.001 µM
[26] = second compound 0.949 µM, first compound 0.00316 µM
[27] = second compound 0.949 µM, first compound 0.01 µM
[28] = second compound 0.949 µM, first compound 0.0316 µM
[29] = second compound 0.949 µM, first compound 0.1 µM
[30] = second compound 3 µM, first compound 0.000316 µM
[31] = second compound 3 µM, first compound 0.001 µM
[32] = second compound 3 µM, first compound 0.00316 µM
[33] = second compound 3 µM, first compound 0.01 µM
[34] = second compound 3 µM, first compound 0.0316 µM
[35] = second compound 3 µM, first compound 0.1 µM
[36] = curve of first compound, second compound 0.1 µM
[37] = curve of first compound, second compound 0.316 µM
[38] = curve of first compound, second compound 1 µM
[39] = curve of first compound, second compound 3.16 µM
[40] = curve of first compound, second compound 10 µM

NC1CCC(NC2CC2c2ccccc2)CC1 (configuration not stated) + CCN1C(C(=O)NC23CCC(C(=O)O)(CC2)CC3)C(c2cccc(Cl)c2F)C2(C(=O)Nc3cc(Cl)ccc32)C12CCCCC2
IC50 [1]: > 100 nM
IC50 [2]: > 100 nM
IC50 [3]: > 100 nM
IC50 [4]: > 100 nM
IC50 [5]: > 100 nM
viability, T/C [6]: 109%
viability, T/C [7]: 98%
viability, T/C [8]: 109%
viability, T/C [9]: 110%
viability, T/C [10]: 105%
viability, T/C [11]: 96.7%
viability, T/C [12]: 102%
viability, T/C [13]: 108%
viability, T/C [14]: 111%
viability, T/C [15]: 103%
viability, T/C [16]: 100%
viability, T/C [17]: 105%
viability, T/C [18]: 118%
viability, T/C [19]: 117%
viability, T/C [20]: 108%
viability, T/C [21]: 105%
viability, T/C [22]: 97.8%
viability, T/C [23]: 119%
viability, T/C [24]: 111%
viability, T/C [25]: 121%
viability, T/C [26]: 112%
viability, T/C [27]: 114%
viability, T/C [28]: 115%
viability, T/C [29]: 119%
viability, T/C [30]: 119%
viability, T/C [31]: 123%
viability, T/C [32]: 112%
viability, T/C [33]: 104%
viability, T/C [34]: 115%
viability, T/C [35]: 112%

Cn1ncnc1[C@H]1c2n[nH]c(=O)c3cc(F)cc(c23)N[C@@H]1c1ccc(F)cc1 + CCN1C(C(=O)NC23CCC(C(=O)O)(CC2)CC3)C(c2cccc(Cl)c2F)C2(C(=O)Nc3cc(Cl)ccc32)C12CCCCC2
IC50 [1]: > 100 nM
IC50 [2]: > 100 nM
IC50 [3]: > 100 nM
IC50 [4]: > 100 nM
IC50 [5]: > 100 nM
viability, T/C [6]: 107%
viability, T/C [7]: 109%
viability, T/C [8]: 107%
viability, T/C [9]: 108%
viability, T/C [10]: 107%
viability, T/C [11]: 104%
viability, T/C [12]: 118%
viability, T/C [13]: 125%
viability, T/C [14]: 114%
viability, T/C [15]: 102%
viability, T/C [16]: 114%
viability, T/C [17]: 109%
viability, T/C [18]: 118%
viability, T/C [19]: 128%
viability, T/C [20]: 119%
viability, T/C [21]: 121%
viability, T/C [22]: 113%
viability, T/C [23]: 112%
viability, T/C [24]: 139%
viability, T/C [25]: 138%
viability, T/C [26]: 120%
viability, T/C [27]: 118%
viability, T/C [28]: 112%
viability, T/C [29]: 126%
viability, T/C [30]: 124%
viability, T/C [31]: 136%
viability, T/C [32]: 132%
viability, T/C [33]: 129%
viability, T/C [34]: 131%
viability, T/C [35]: 121%

NC(=O)C(=Cn1cnc(-c2cc(C(F)(F)F)cc(C(F)(F)F)c2)n1)c1cncnc1 + Cc1c(S(C)(=O)=O)c(-c2cc(F)cc(N3CCN(c4ccc(NS(=O)(=O)c5ccc(NC(CCN6CCC(C(=O)OCCCP(=O)(O)O)CC6)CSc6ccccc6)c(S(=O)(=O)C(F)(F)F)c5)cc4)CC3)c2)c(-c2ccc(Cl)cc2)n1C(C)C
IC50 [36]: 19.3 nM
IC50 [37]: 23.3 nM
IC50 [38]: 21.3 nM
IC50 [39]: 19.8 nM
IC50 [40]: 14.7 nM
viability, T/C (second compound 0.1 µM, first compound 0.000949 µM): 101%
viability, T/C (second compound 0.1 µM, first compound 0.003 µM): 89.2%
viability, T/C (second compound 0.1 µM, first compound 0.00949 µM): 72.1%
viability, T/C (second compound 0.1 µM, first compound 0.03 µM): 38.7%
viability, T/C (second compound 0.1 µM, first compound 0.0949 µM): 4.69%
viability, T/C (second compound 0.1 µM, first compound 0.3 µM): 1.47%
viability, T/C (second compound 0.316 µM, first compound 0.000949 µM): 95.5%
viability, T/C (second compound 0.316 µM, first compound 0.003 µM): 89%
viability, T/C (second compound 0.316 µM, first compound 0.00949 µM): 78.9%
viability, T/C (second compound 0.316 µM, first compound 0.03 µM): 43.4%
viability, T/C (second compound 0.316 µM, first compound 0.0949 µM): 3.08%
viability, T/C (second compound 0.316 µM, first compound 0.3 µM): 1.16%
viability, T/C (second compound 1 µM, first compound 0.000949 µM): 91.2%
viability, T/C (second compound 1 µM, first compound 0.003 µM): 83.5%
viability, T/C (second compound 1 µM, first compound 0.00949 µM): 72.3%
viability, T/C (second compound 1 µM, first compound 0.03 µM): 42.8%
viability, T/C (second compound 1 µM, first compound 0.0949 µM): 2.35%
viability, T/C (second compound 1 µM, first compound 0.3 µM): 1.29%
viability, T/C (second compound 3.16 µM, first compound 0.000949 µM): 78%
viability, T/C (second compound 3.16 µM, first compound 0.003 µM): 78.5%
viability, T/C (second compound 3.16 µM, first compound 0.00949 µM): 64.1%
viability, T/C (second compound 3.16 µM, first compound 0.03 µM): 42.5%
viability, T/C (second compound 3.16 µM, first compound 0.0949 µM): 2.09%
viability, T/C (second compound 3.16 µM, first compound 0.3 µM): 1.75%
viability, T/C (second compound 10 µM, first compound 0.000949 µM): 76.4%
viability, T/C (second compound 10 µM, first compound 0.003 µM): 74.3%
viability, T/C (second compound 10 µM, first compound 0.00949 µM): 59.6%
viability, T/C (second compound 10 µM, first compound 0.03 µM): 33.5%
viability, T/C (second compound 10 µM, first compound 0.0949 µM): 2.89%
viability, T/C (second compound 10 µM, first compound 0.3 µM): 1.28%

C#Cc1c(F)ccc2cc(O)cc(-c3ncc4c(N5CC6CCC(C5)N6)nc(OCC56CCCN5CC(F)C6)nc4c3F)c12 (configuration not stated)
viability, T/C (compound 0.0316 µM): 94.6% and 101% and 103%
viability, T/C (compound 0.1 µM): 93.4% and 95.6% and 109%
viability, T/C (compound 0.316 µM): 93.4% and 92.8% and 118%
viability, T/C (compound 1 µM): 102% and 100% and 113%
viability, T/C (compound 3.16 µM): 101% and 92.6% and 108%
viability, T/C (compound 10 µM): 105% and 92.6% and 104%
IC50 (curve of compound): > 10000 nM

NC1CCC(NC2CC2c2ccccc2)CC1 (configuration not stated) + Cc1c(S(C)(=O)=O)c(-c2cc(F)cc(N3CCN(c4ccc(NS(=O)(=O)c5ccc(NC(CCN6CCC(C(=O)OCCCP(=O)(O)O)CC6)CSc6ccccc6)c(S(=O)(=O)C(F)(F)F)c5)cc4)CC3)c2)c(-c2ccc(Cl)cc2)n1C(C)C
IC50 [36]: > 100 nM
IC50 [37]: > 100 nM
IC50 [38]: > 100 nM
IC50 [39]: > 100 nM
IC50 [40]: > 100 nM
viability, T/C (second compound 0.1 µM, first compound 0.000316 µM): 91.7%
viability, T/C (second compound 0.1 µM, first compound 0.001 µM): 100%
viability, T/C (second compound 0.1 µM, first compound 0.00316 µM): 84.5%
viability, T/C (second compound 0.1 µM, first compound 0.01 µM): 93.7%
viability, T/C (second compound 0.1 µM, first compound 0.0316 µM): 93.1%
viability, T/C (second compound 0.1 µM, first compound 0.1 µM): 85.7%
viability, T/C (second compound 0.316 µM, first compound 0.000316 µM): 91.8%
viability, T/C (second compound 0.316 µM, first compound 0.001 µM): 88.7%
viability, T/C (second compound 0.316 µM, first compound 0.00316 µM): 97%
viability, T/C (second compound 0.316 µM, first compound 0.01 µM): 96.7%
viability, T/C (second compound 0.316 µM, first compound 0.0316 µM): 97.5%
viability, T/C (second compound 0.316 µM, first compound 0.1 µM): 91.6%
viability, T/C (second compound 1 µM, first compound 0.000316 µM): 89.1%
viability, T/C (second compound 1 µM, first compound 0.001 µM): 88.7%
viability, T/C (second compound 1 µM, first compound 0.00316 µM): 89.8%
viability, T/C (second compound 1 µM, first compound 0.01 µM): 85.1%
viability, T/C (second compound 1 µM, first compound 0.0316 µM): 87.5%
viability, T/C (second compound 1 µM, first compound 0.1 µM): 80%
viability, T/C (second compound 3.16 µM, first compound 0.000316 µM): 79.4%
viability, T/C (second compound 3.16 µM, first compound 0.001 µM): 86.6%
viability, T/C (second compound 3.16 µM, first compound 0.00316 µM): 79.2%
viability, T/C (second compound 3.16 µM, first compound 0.01 µM): 75.9%
viability, T/C (second compound 3.16 µM, first compound 0.0316 µM): 78%
viability, T/C (second compound 3.16 µM, first compound 0.1 µM): 76%
viability, T/C (second compound 10 µM, first compound 0.000316 µM): 69.7%
viability, T/C (second compound 10 µM, first compound 0.001 µM): 73.5%
viability, T/C (second compound 10 µM, first compound 0.00316 µM): 69.3%
viability, T/C (second compound 10 µM, first compound 0.01 µM): 74%
viability, T/C (second compound 10 µM, first compound 0.0316 µM): 76.6%
viability, T/C (second compound 10 µM, first compound 0.1 µM): 71.1%
